Legend:
soybean = test: Test C preemergence; assay type: in vivo, Glycine max; conditions: for Soybean plant response rating (0 to 100): Preemergence, visual rating after 13 to 15 d; for Plant response rating (scale of 0 to 100 where 0 is no effect and 100 is complete control): Soybean, preemergence, 250 g ai/ha
Source text: Seeds of plant species selected from blackgrass (Alopecurus myosuroides), ryegrass, Italian (Italian ryegrass, Lolium multiflorum), wheat (winter wheat, Triticum aestivum), galium (catchweed bedstraw, Galium aparine), corn (Zea mays), crabgrass, large (large crabgrass, Digitaria sanguinalis), foxtail, giant, (giant foxtail, Setaria faberii), johnsongrass (Sorghum halepense), lambsquarters (Chenopodium album), morningglory (Ipomoea coccinea), nutsedge, yellow (yellow nutsedge, Cyperus esculentus), pigweed (Amaranthus retroflexus), ragweed (common ragweed, Ambrosia elatior), soybean (Glycine max), barnyardgrass (Echinochloa crus-galli), oilseed rape (Brassica napus), waterhemp (common waterhemp, Amaranthus rudis), and velvetleaf (Abutilon theophrasti) were planted into a blend of loam soil and sand and treated preemergence with test chemicals formulated in a non-phytotoxic solvent mixture which included a surfactant. At the same time, plants selected from these crop and weed species and also chickweed (common chickweed, Stellaria media), oat, wild (wild oat, Avena fatua), and kochia (Kochia scoparia), were planted in pots containing Sunshine Redi-Earth® planting medium comprising spaghnum peat moss, vermiculite, starter nutrients and dolomitic limestone and treated with postemergence applications of test chemicals formulated in the same manner. Plants ranged in height from 2 to 18 cm (1- to 4-leaf stage) for postemergence treatments. […] A dash (-) response means no test result.

bromegrass, down = test: Test D preemergence; assay type: in vivo, Bromus tectorum; conditions: for Plant response rating: Bromegrass, Down: scale 0 to 100
Source text: (§1) Seeds of plant species selected from bluegrass (annual bluegrass, Poa annua), blackgrass (Alopecurus myosuroides), canarygrass (Phalaris minor), chickweed (common chickweed, Stellaria media), galium (catchweed bedstraw, Galium aparine), bromegrass, down (downy bromegrass, Bromus tectorum), Russian thistle (Salsola kali), field poppy (Papaver rhoeas), field violet (Viola arvensis), foxtail, green (green foxtail, Setaria viridis), deadnettle (henbit deadnettle, Lamium amplexicaule), ryegrass, Ital. (Italian ryegrass, Lolium multiflorum), kochia (Kochia scoparia), lambsquarters (Chenopodium album), oilseed rape (Brassica napus), pigweed (Amaranthus retroflexus), chamomile (scentless chamomile, Matricaria inodora), speedwell (bird's-eye speedwell, Veronica persica), barley, spring (spring barley, Hordeum vulgare), wheat, spring (spring wheat, Triticum aestivum), buckwheat, wild (wild buckwheat, Polygonum convolvulus), wild mustard (Sinapis arvensis), oat, wild (wild oat, Avena fatua), radish, wild (wild radish, Raphanus raphanistrum), […]), barley, winter (winter barley, Hordeum vulgare), and wheat, winter (winter wheat, Triticum aestivum) were planted into a silt loam soil and treated preemergence with test chemicals formulated in a non-phytotoxic solvent mixture which included a surfactant. At the same time, these species were planted in pots containing Sunshine Redi-Earth® planting medium comprising spaghnum peat moss, vermiculite, starter nutrients and dolomitic limestone and treated with postemergence applications of the test chemicals formulated in the same manner. Plants ranged in height from 2 to 18 cm (1- to 4-leaf stage). Treated plants and controls were maintained in a controlled growth environment for 14 to 21 d after which time all species were compared to controls and visually evaluated. […] A dash (-) response means no test result.

galium [1] = test: Test D postemergence; assay type: in vivo, Galium aparine; conditions: scale 0 to 100
Source text: as §1

deadnettle = test: Test D postemergence; assay type: in vivo, Lamium amplexicaule; conditions: scale 0 to 100
Source text: as §1

barley, spring = test: Test D postemergence; assay type: in vivo, Hordeum vulgare; conditions: scale 0 to 100
Source text: as §1

barley, winter = test: Test D postemergence; assay type: in vivo, Hordeum vulgare; conditions: scale 0 to 100
Source text: as §1

buckwheat, wild = test: Test D postemergence; assay type: in vivo, Polygonum convolvulus; conditions: scale 0 to 100
Source text: as §1

radish, wild = test: Test D postemergence; assay type: in vivo, Raphanus raphanistrum; conditions: scale 0 to 100
Source text: as §1

ryegrass, Italian = test: Test A preemergence; assay type: in vivo, Lolium multiflorum; conditions: 0 to 100 scale (0 no effect, 100 complete control)
Source text: (§2) Seeds of plant species selected from barnyardgrass (Echinochloa crus-galli), crabgrass, large (large crabgrass, Digitaria sanguinalis), kochia (Kochia scoparia), ragweed (common ragweed, Ambrosia elatior), foxtail, giant (giant foxtail, Setaria faberii), morningglory (Ipomoea spp.), pigweed (Amaranthus retroflexus), velvetleaf (Abutilon theophrasti), ryegrass, Italian (Italian ryegrass, Lolium multiflorum), wheat (Triticum aestivum), and corn (Zea mays) were planted into a blend of loam soil and sand and treated preemergence with a directed soil spray using test chemicals formulated in a non-phytotoxic solvent mixture which included a surfactant.
(§3) At the same time, plants selected from these crop and weed species and also blackgrass (Alopecurus myosuroides), and galium (catchweed bedstraw, Galium aparine), were planted in pots containing the same blend of loam soil and sand and treated with postemergence applications of test chemicals formulated in the same manner. Plants ranged in height from 2 to 10 cm and were in the one- to two-leaf stage for the postemergence treatment. Treated plants and untreated controls were maintained in a greenhouse for approximately 10 d, after which time all treated plants were compared to untreated controls and visually evaluated for injury. Plant response ratings, summarized in Table A, are based on a 0 to 100 scale where 0 is no effect and 100 is complete control. A dash (-) response means no test result.

galium [2] = test: Test A postemergence; assay type: in vivo, Galium aparine; conditions: 0 to 100 scale (0 no effect, 100 complete control), approx. 10 d
Source text: as §2, §3

Row | SMILES | Soybean plant response rating (0 to 100) (soybean; 31 g ai/ha) | Soybean plant response rating (0 to 100) (soybean; 62 g ai/ha) | Plant response rating (scale of 0 to 100 where 0 is no effect and 100 is complete control) (soybean) | Plant response rating: Bromegrass, Down (bromegrass, down; 31 g ai/ha) | Plant response rating: Bromegrass, Down (bromegrass, down; 62 g ai/ha) | Plant response rating: Bromegrass, Down (bromegrass, down; 125 g ai/ha) | Plant response rating: Galium (galium [1]; 31 g ai/ha) | Plant response rating: Galium (galium [1]; 62 g ai/ha) | Plant response rating: Galium (galium [1]; 125 g ai/ha) | Plant response rating: Deadnettle (deadnettle; 31 g ai/ha) | Plant response rating: Deadnettle (deadnettle; 62 g ai/ha) | Plant response rating: Deadnettle (deadnettle; 125 g ai/ha) | Plant response rating: Barley, Spring (barley, spring; 31 g ai/ha) | Plant response rating: Barley, Spring (barley, spring; 62 g ai/ha) | Plant response rating: Barley, Spring (barley, spring; 125 g ai/ha) | Plant response rating: Barley, Winter (barley, winter; 31 g ai/ha) | Plant response rating: Barley, Winter (barley, winter; 62 g ai/ha) | Plant response rating: Barley, Winter (barley, winter; 125 g ai/ha) | Plant response rating, Ryegrass, Italian (ryegrass, Italian; 125 g ai/ha) | Plant response rating, Galium (galium [2]; 125 g ai/ha) | further results
1 | CCc1nc(-c2ccc(C(F)(F)F)cc2)nn1Cc1ccnc(C(F)(F)F)c1 [Compound 1, 4-[[5-ethyl-3-[4-(trifluoromethyl)phenyl]-1H-1,2,4-triazol-1-yl]methyl]-2-(trifluoromethyl)pyridine] | 0 | 5 | 20 | 0 | 0 | 10 | 70 | 70 | 90 | 65 | 60 | 70 | 20 | 35 | 35 | 20 | 25 | 35 | – | – | Plant response rating: Bromegrass, Down (bromegrass, down; 250 g ai/ha): 10; Plant response rating: Galium (galium [1]; 250 g ai/ha): 90; Plant response rating: Deadnettle (deadnettle; 250 g ai/ha): 85; Plant response rating: Barley, Spring (barley, spring; 250 g ai/ha): 40; Plant response rating: Barley, Winter (barley, winter; 250 g ai/ha): 40; Plant response rating: Buckwheat, Wild (buckwheat, wild; 31 g ai/ha): 60; Plant response rating: Buckwheat, Wild (buckwheat, wild; 62 g ai/ha): 80; Plant response rating: Buckwheat, Wild (buckwheat, wild; 125 g ai/ha): 100; Plant response rating: Buckwheat, Wild (buckwheat, wild; 250 g ai/ha): 100; Plant response rating: Radish, Wild (radish, wild; 31 g ai/ha): 75; Plant response rating: Radish, Wild (radish, wild; 62 g ai/ha): 100; Plant response rating: Radish, Wild (radish, wild; 125 g ai/ha): 95; Plant response rating: Radish, Wild (radish, wild; 250 g ai/ha): 95
2 | CCCc1nc(-c2ccc(F)cc2)nn1Cc1ccnc(C(F)(F)F)c1 [Compound 6, 4-[[3-(4-fluorophenyl)-5-propyl-1H-1,2,4-triazol-1-yl]methyl]-2-(trifluoromethyl)pyridine] | 5 | 5 | 70 | – | – | – | – | – | – | – | – | – | – | – | – | – | – | – | – | – | –
3 | CCOc1nc(-c2ccc(F)cc2)nn1Cc1ccnc(C(F)(F)F)c1 [Compound 8, 4-[[5-ethoxy-3-(4-fluorophenyl)-1H-1,2,4-triazol-1-yl]methyl]-2-(trifluoromethyl)pyridine] | 15 | 35 | 75 | 10 | 35 | 100 | 75 | 90 | 95 | 75 | 80 | 95 | 25 | 30 | 35 | 20 | 30 | 35 | – | – | Plant response rating: Bromegrass, Down (bromegrass, down; 250 g ai/ha): 100; Plant response rating: Galium (galium [1]; 250 g ai/ha): 95; Plant response rating: Deadnettle (deadnettle; 250 g ai/ha): 90; Plant response rating: Barley, Spring (barley, spring; 250 g ai/ha): 35; Plant response rating: Barley, Winter (barley, winter; 250 g ai/ha): 35; Plant response rating: Buckwheat, Wild (buckwheat, wild; 31 g ai/ha): 70; Plant response rating: Buckwheat, Wild (buckwheat, wild; 62 g ai/ha): 70; Plant response rating: Buckwheat, Wild (buckwheat, wild; 125 g ai/ha): 95; Plant response rating: Buckwheat, Wild (buckwheat, wild; 250 g ai/ha): 95; Plant response rating: Radish, Wild (radish, wild; 31 g ai/ha): 80; Plant response rating: Radish, Wild (radish, wild; 62 g ai/ha): 100; Plant response rating: Radish, Wild (radish, wild; 125 g ai/ha): 100; Plant response rating: Radish, Wild (radish, wild; 250 g ai/ha): 100
4 | COc1nc(-c2ccc(F)cc2)nn1Cc1ccnc(C(F)(F)F)c1 [Compound 9, 4-[[3-(4-fluorophenyl)-5-methoxy-1H-1,2,4-triazol-1-yl]methyl]-2-(trifluoromethyl)pyridine] | 0 | 0 | 40 | – | – | – | – | – | – | – | – | – | – | – | – | – | – | – | – | – | –
5 | COc1nc(-c2ccc(C(F)(F)F)cc2)nn1Cc1ccnc(C(F)(F)F)c1 [Compound 25] | – | – | – | – | – | – | – | – | – | – | – | – | – | – | – | – | – | – | 50 | 80 | Plant response rating, Ryegrass, Italian (ryegrass, Italian; 31 g ai/ha): 0; Plant response rating, Galium (galium [2]; 31 g ai/ha): 60
6 | CCOc1nc(-c2ccc(Cl)cc2)nn1Cc1ccnc(C(F)(F)F)c1 [Compound 26] | – | – | – | – | – | – | – | – | – | – | – | – | – | – | – | – | – | – | 100 | 90 | Plant response rating, Ryegrass, Italian (ryegrass, Italian; 31 g ai/ha): 40; Plant response rating, Galium (galium [2]; 31 g ai/ha): 60
7 | COc1nc(-c2ccc(Cl)cc2)nn1Cc1ccnc(C(F)(F)F)c1 [Compound 28] | – | – | – | 40 | 45 | 45 | 70 | 75 | 80 | 60 | 70 | 75 | 20 | 20 | 25 | 15 | 20 | 25 | 20 | 50 | Plant response rating, Ryegrass, Italian (ryegrass, Italian; 500 g ai/ha, approx. 10 d): 90; Plant response rating, Galium (galium [2]; 500 g ai/ha): 80; Plant response rating (0 to 100), Bromegrass, Down (bromegrass, down; 16 g ai/ha, 0 is no effect, 100 is complete control): 35; Plant response rating: Galium (galium [1]; 16 g ai/ha): 65; Plant response rating: Deadnettle (deadnettle; 16 g ai/ha): 50; Plant response rating: Barley, Spring (barley, spring; 16 g ai/ha): 15; Plant response rating: Barley, Winter (barley, winter; 16 g ai/ha): 10; Plant response rating: Buckwheat, Wild (buckwheat, wild; 16 g ai/ha): 60; Plant response rating: Buckwheat, Wild (buckwheat, wild; 31 g ai/ha): 65; Plant response rating: Buckwheat, Wild (buckwheat, wild; 62 g ai/ha): 75; Plant response rating: Buckwheat, Wild (buckwheat, wild; 125 g ai/ha): 95; Plant response rating: Radish, Wild (radish, wild; 16 g ai/ha): 85; Plant response rating: Radish, Wild (radish, wild; 31 g ai/ha): 95; Plant response rating: Radish, Wild (radish, wild; 62 g ai/ha): 95; Plant response rating: Radish, Wild (radish, wild; 125 g ai/ha): 100
8 | COc1nc(-c2ccccc2)nn1Cc1ccnc(C(F)(F)F)c1 [Compound 32] | 0 | 0 | 5 | – | – | – | – | – | – | – | – | – | – | – | – | – | – | – | 40 | 60 | Plant response rating, Ryegrass, Italian (ryegrass, Italian; 500 g ai/ha): 60; Plant response rating, Galium (galium [2]; 500 g ai/ha): 90
9 | CCCOc1nc(-c2ccccc2)nn1Cc1ccnc(C(F)(F)F)c1 [Compound 33] | – | – | – | – | – | – | – | – | – | – | – | – | – | – | – | – | – | – | 30 | 70 | Plant response rating, Ryegrass, Italian (ryegrass, Italian; 500 g ai/ha): 60; Plant response rating, Galium (galium [2]; 500 g ai/ha): 80

Reference: patent publication US10681909B2, “Herbicidal triazoles” (FMC Corporation, priority 2014, dated 2020)
